In ChEMBL document CHEMBL1201862, “PubChem BioAssay data set” (2004):
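All cell lines were grown in 96-well plates and treated with compound for 48 hours. GI50 is the concentration that inhibits growth by half.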 Activity calls are given as the source filed them. Cut-off read from the data, not from the text of the source: active = GI50 up to about 1.1 µM and inactive = higher.

Legend:
Assay in all cases: NCI anticancer screen, dose series, 48 h
KM-20L2 = system: KM-20L2
SK-MEL-5 = system: SK-MEL-5
OVCAR-3 = system: OVCAR-3
EKVX = system: EKVX
ACHN = system: ACHN
UACC-257 = system: UACC-257
TK-10 = system: TK-10
NCI-H460 = system: NCI-H460
OVCAR-4 = system: OVCAR-4
NCI-H23 = system: NCI-H23
HOP-62 = system: HOP-62
SK-OV-3 = system: SK-OV-3
RPMI-8226 = system: RPMI-8226
SNB-75 = system: SNB-75
786-0 = system: 786-0
Malme-3M = system: Malme-3M
HOP-92 = system: HOP-92
SF-295 = system: SF-295
MDA-MB-231 = system: MDA-MB-231
SK-MEL-2 = system: SK-MEL-2

Measured: GI50

O=C1C=C(O)c2nc(O)ccc2C1=O
inactive: KM-20L2 > 100 µM | SK-MEL-5 > 100 µM | OVCAR-3 > 100 µM | EKVX > 100 µM | ACHN > 100 µM | UACC-257 > 100 µM | TK-10 > 100 µM | NCI-H460 > 100 µM | OVCAR-4 26.2 µM | NCI-H23 > 100 µM | HOP-62 > 100 µM | SK-OV-3 > 100 µM | RPMI-8226 > 100 µM | SNB-75 > 100 µM | 786-0 > 100 µM | Malme-3M > 100 µM | HOP-92 > 100 µM | SF-295 > 100 µM

CC(=O)NCc1c(C(N)=O)ncn1Cc1ccccc1
inactive: KM-20L2 > 100 µM | SK-MEL-5 > 100 µM | OVCAR-3 > 100 µM | EKVX > 100 µM | ACHN > 100 µM | UACC-257 > 100 µM | TK-10 > 100 µM | NCI-H460 > 100 µM | OVCAR-4 > 100 µM | NCI-H23 > 100 µM | HOP-62 > 100 µM | SK-OV-3 > 100 µM | RPMI-8226 > 100 µM | SNB-75 > 100 µM | 786-0 > 100 µM | HOP-92 > 100 µM | SF-295 > 100 µM

BrCC[N+]12CC[N+](CCBr)(CC1)C2
inactive: SK-MEL-5 > 100 µM | OVCAR-3 > 100 µM | EKVX > 100 µM | ACHN > 100 µM | MDA-MB-231 > 100 µM | UACC-257 > 100 µM | TK-10 > 100 µM | SK-MEL-2 > 100 µM | NCI-H460 > 100 µM | OVCAR-4 > 100 µM | NCI-H23 > 100 µM | HOP-62 39.1 µM | SK-OV-3 > 100 µM | RPMI-8226 > 100 µM | SNB-75 > 100 µM | 786-0 > 100 µM | Malme-3M > 100 µM | HOP-92 > 100 µM | SF-295 > 100 µM

COc1ccc(C(c2c(O)c3ccccc3n(-c3ccccc3)c2=O)c2c(O)c3ccccc3n(-c3ccccc3)c2=O)cc1
inactive: KM-20L2 > 100 µM | SK-MEL-5 > 100 µM | OVCAR-3 > 100 µM | EKVX > 100 µM | ACHN > 100 µM | TK-10 > 100 µM | SK-MEL-2 > 100 µM | OVCAR-4 > 100 µM | NCI-H23 > 100 µM | HOP-62 > 100 µM | RPMI-8226 > 100 µM | 786-0 25.4 µM | Malme-3M > 100 µM | HOP-92 49.2 µM

O=C1c2ccccc2C(=O)N1C/C=N/NS(=O)(=O)c1ccc2ccccc2c1
inactive: KM-20L2 > 100 µM | SK-MEL-5 > 100 µM | OVCAR-3 > 100 µM | EKVX > 100 µM | ACHN > 100 µM | UACC-257 > 100 µM | TK-10 > 100 µM | SK-MEL-2 > 100 µM | NCI-H460 > 100 µM | OVCAR-4 > 100 µM | NCI-H23 > 100 µM | HOP-62 > 100 µM | SK-OV-3 > 100 µM | RPMI-8226 > 100 µM | SNB-75 > 100 µM | 786-0 > 100 µM | Malme-3M > 100 µM | SF-295 > 100 µM

Cn1c(=O)n(CC(Br)CBr)c(=O)n(CC(Br)CBr)c1=O (configuration not stated)
inactive: SK-MEL-5 16.5 µM | OVCAR-3 38.5 µM | EKVX 25.2 µM | ACHN 36.6 µM | MDA-MB-231 33.7 µM | UACC-257 31.8 µM | TK-10 55.5 µM | SK-MEL-2 46.1 µM | NCI-H460 33.4 µM | OVCAR-4 66.2 µM | NCI-H23 36 µM | HOP-62 > 100 µM | SK-OV-3 > 100 µM | RPMI-8226 25.1 µM | SNB-75 58.5 µM | 786-0 38.1 µM | Malme-3M > 100 µM | HOP-92 > 100 µM | SF-295 45 µM

CC(=O)Oc1ccc(O)c2c1CCCC2
inactive: KM-20L2 > 100 µM | SK-MEL-5 > 45.7 µM | OVCAR-3 12.5 µM | EKVX 64.9 µM | ACHN 15.2 µM | UACC-257 39.9 µM | TK-10 21.4 µM | SK-MEL-2 > 100 µM | NCI-H460 > 31.6 µM | OVCAR-4 19 µM | NCI-H23 > 52.8 µM | HOP-62 > 100 µM | SK-OV-3 46.7 µM | RPMI-8226 23.3 µM | SNB-75 > 100 µM | 786-0 > 100 µM | Malme-3M > 40.5 µM | SF-295 > 100 µM

O=c1c2ccccc2oc2nccnc12
inactive: KM-20L2 > 100 µM | SK-MEL-5 > 100 µM | OVCAR-3 > 100 µM | EKVX > 100 µM | ACHN > 100 µM | UACC-257 > 100 µM | TK-10 > 100 µM | SK-MEL-2 > 100 µM | NCI-H460 > 100 µM | OVCAR-4 > 100 µM | NCI-H23 > 100 µM | HOP-62 > 100 µM | SK-OV-3 > 100 µM | RPMI-8226 > 100 µM | SNB-75 > 100 µM | 786-0 > 100 µM | Malme-3M > 100 µM | SF-295 > 100 µM

COc1cccc2ccc(C(=O)c3ccccc3)nc12
inactive: KM-20L2 > 100 µM | SK-MEL-5 > 100 µM | OVCAR-3 > 100 µM | EKVX > 100 µM | ACHN > 100 µM | TK-10 > 100 µM | SK-MEL-2 > 100 µM | OVCAR-4 > 100 µM | NCI-H23 > 100 µM | HOP-62 > 100 µM | RPMI-8226 > 100 µM | SNB-75 > 100 µM | 786-0 > 100 µM | Malme-3M > 100 µM | SF-295 > 100 µM

COC(=O)N/N=C/c1oc(-c2ccccc2)c(-c2ccccc2)c1[N+](=O)[O-]
inactive: KM-20L2 > 100 µM | SK-MEL-5 > 100 µM | OVCAR-3 > 100 µM | ACHN > 100 µM | UACC-257 > 100 µM | TK-10 > 100 µM | NCI-H460 > 100 µM | OVCAR-4 > 100 µM | NCI-H23 > 100 µM | HOP-62 > 100 µM | SK-OV-3 > 100 µM | RPMI-8226 > 100 µM | SNB-75 > 100 µM | 786-0 > 100 µM | Malme-3M > 100 µM | HOP-92 > 100 µM | SF-295 > 100 µM

CN(C)CCCC12CCCCC1=Nc1ccccc12 (configuration not stated)
inactive: SK-MEL-5 > 100 µM | OVCAR-3 > 100 µM | EKVX > 100 µM | ACHN > 100 µM | MDA-MB-231 > 100 µM | UACC-257 > 100 µM | TK-10 > 100 µM | SK-MEL-2 > 100 µM | NCI-H460 > 100 µM | OVCAR-4 > 100 µM | NCI-H23 > 100 µM | HOP-62 > 100 µM | SK-OV-3 > 100 µM | RPMI-8226 65.5 µM | SNB-75 > 100 µM | 786-0 > 100 µM | Malme-3M > 100 µM | HOP-92 > 100 µM | SF-295 > 100 µM
